The values that follow come from ChEMBL document CHEMBL1143187, “Synthesis of and evaluation of lipid A modification by 4-substituted 4-deoxy arabinose analogs as potential inhibitors of bacterial polymyxin resistance” (Bioorg Med Chem Lett, 2008).

Activity calls are given as the source filed them. No cut-off for these calls is given here.

Experiment [1] concerns Escherichia coli. Kind of experiment: Inhibition of Escherichia coli ArnA upto 100 uM.
For experiment [2], the system named is Escherichia coli. The experiment is described as follows: Inhibition of Escherichia coli ArnB upto 100 uM.
Experiment [3] concerns the target Undecaprenyl phosphate-alpha-4-amino-4-deoxy-L-arabinose arabinosyl transferase (Salmonella typhimurium (strain LT2 / SGSC1412 / ATCC 700720)) (UniProt O52327). The experiment is described as follows: Inhibition of PmrK/ArnT in Salmonella Typhimurium JSG435 membranes assessed as effect on transfer of aminoarabinose tp lipid A. The settings on record: Salmonella enterica subsp. enterica serovar Typhimurium.

`COP(=O)(N[C@H]1CO[C@H](OP(=O)(O)O)[C@H](OC(C)=O)[C@H]1OC(C)=O)OC`: the result in experiment [1] and in experiment [2] was Active.

In the case of `CCCCCCCCN.CCOP(=O)(Cc1ccccc1)N[C@H]1CO[C@H](OP(=O)(O)OP(=O)(O)OC[C@H]2O[C@@H](n3ccc(=O)[nH]c3=O)[C@H](O)[C@@H]2O)[C@H](OC(C)=O)[C@H]1OC(C)=O` (stereo partly drawn), the outcome in experiment [1] and in experiment [2] was Active.

As to `CC(=O)O[C@@H]1[C@@H](OC(C)=O)[C@@H](OP(=O)(O)OP(=O)(O)OC[C@H]2O[C@@H](n3ccc(=O)[nH]c3=O)[C@H](O)[C@@H]2O)OC[C@@H]1N=[N+]=[N-].CCCCCCCCCN`, the outcome in experiment [1] and in experiment [2] was Active.

Turning to `COP(=O)(N[C@H]1CO[C@H](OP(=O)(OCc2ccccc2)OCc2ccccc2)[C@H](OC(C)=O)[C@H]1OC(C)=O)OC`, the result in experiment [1] and in experiment [2] was Active.

Consider `CC(=O)OC1OC[C@H](N=[N+]=[N-])[C@H](OC(C)=O)[C@H]1OC(C)=O` (stereo partly drawn), for which the outcome in experiment [1], in experiment [2] and in experiment [3] was Active.

Take `CC(=O)O[C@@H]1[C@@H](OC(C)=O)[C@@H](OP(=O)(O)O)OC[C@@H]1N=[N+]=[N-]`: the result in experiment [1] and in experiment [2] was Active.
